Test results: patent US7566781B2, “Imidazopyridine compound” (Banyu Pharmaceutical Co., Ltd., priority 2004, dated 2009)

Target: T1, human MCH-1R (Homo sapiens, UniProt Q99705)
T1 construct: expressed in transfected cells; host or cells: CHO-K1 (American Type Culture Collection), membrane samples
Assay: MCH binding inhibition test
Conditions: membranes of MCH-1R expressing CHO-K1 cells, 50 pM [125I]MCH, 25° C., 1 hour, pH 7.4; read-out: IC50 (50% inhibition concentration of test compound to the specific [125I]MCH binding)
Experimental: A human MCH-1R encoding cDNA sequence [FEBS Letters, Vol. 398, 253 (1996); Biochimica et Biophisica Acta, Vol. 1401, 216 (1998)] was cloned to plasmid vector pEF/myc/cyto (Invitrogen Corporation). The obtained expression vector was transfected to a host cell CHO-K1 (American Type Culture Collection) using Lipofectamine Plus Reagent (Life Technology Inc.) to provide MCH-1R expression cells.
Membrane samples prepared from the MCH-1R expression cells were incubated with each test compound and 50 pM of [^125I]MCH (NEN Co.), in an assay buffer (50 mM Tris buffer comprising 10 mM magnesium chloride, 2 mM ethylenediamine tetraacetate, 0.01% bacitracin and 0.2% bovine serum albumin; pH 7.4) at 25° C. for an hour, followed by filtration through Glass Filter GF/C (Wattman Co.). After washing the glass filter with 50 mM Tris buffer (pH 7.4) comprising 10 mM magnesium chloride, 2 mM ethylenediamine tetraacetate and 0.04% Tween-20, the radioactive activity on the glass filter was measured. The non-specific binding was measured in the presence of 1 μM human MCH and 50% inhibition concentration (IC50 value) of each test compound to the specific [^125I]MCH binding was determined.

T1 sequence (Q99705 whole entry): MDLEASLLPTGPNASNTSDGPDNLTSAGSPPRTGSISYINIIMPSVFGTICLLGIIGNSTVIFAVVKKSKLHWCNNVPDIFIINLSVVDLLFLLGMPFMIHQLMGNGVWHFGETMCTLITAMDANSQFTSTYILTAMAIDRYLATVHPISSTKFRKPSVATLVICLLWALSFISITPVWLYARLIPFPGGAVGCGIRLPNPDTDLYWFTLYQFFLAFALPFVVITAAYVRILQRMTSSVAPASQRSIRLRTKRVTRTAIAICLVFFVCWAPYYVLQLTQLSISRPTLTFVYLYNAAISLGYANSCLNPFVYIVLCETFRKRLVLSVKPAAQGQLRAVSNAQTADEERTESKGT

IC50 | Structure (SMILES)
6.2 nM | Cc1c(C(C)C)nc2ccc(NC(=O)c3ccc(CCc4ccccn4)cc3)cn12 [Example 49, N-(2-isopropyl-3-methylimidazo[1,2-a]pyridin-6-yl)-4-(2-pyridin-2-ylethyl)benzamide]
0.49 nM | Cc1c(CCCN2CCCC2)nc2ccc(NC(=O)c3ccc(OCc4ccccc4)cc3)cn12 [Example 17]
8.4 nM | Cc1c(C2CC2)nc2ccc(NC(=O)c3ccc(COc4ccccn4)cc3)cn12 [Example 25]
0.47 nM | Cc1c(CCCN2CCCC2)nc2ccc(NC(=O)c3ccc(/C=C/c4ccccn4)cc3)cn12 [Example 48, N-[3-methyl-2-(3-pyrrolidin-1-ylpropyl)imidazo[1,2-a]pyridin-6-yl]-4-[(E)-2-pyridin-2-ylvinyl]benzamide]
3.8 nM | Cc1c(C2CCOC2)nc2ccc(NC(=O)c3ccc(SCc4ccccn4)cc3)cn12 (stereo not drawn) [Example 59, N-[3-methyl-2-(tetrahydrofuran-3-yl)imidazo[1,2-a]pyridin-6-yl]-4-(pyridin-2-ylmethylsulfanyl)benzamide]
1.3 nM | CCc1nc2ccc(NC(=O)c3ccc(/C=C/c4ccccc4)cc3)cn2c1C [Example 28, N-(2-ethyl-3-methylimidazo[1,2-a]pyridin-6-yl)-4-((E)-2-phenylvinyl)benzamide]

Second part, the compound before the results:

Structure (SMILES) | IC50
CCc1nc2ccc(NC(=O)c3ccc(Oc4cc(Cl)ccn4)cc3)cn2c1C [Example 67, 4-(4-Chloropyridin-2-yloxy)-N-(2-ethyl-3-methylimidazo[1,2-a]pyridin-6-yl)benzamide] | 4.3 nM
Cc1c(C2CC2)nc2ccc(NC(=O)c3ccc(NC(=O)c4ccccn4)cc3)cn12 [Example 61, Pyridine-2-carboxylic acid[4-(2-cyclopropyl-3-methylimidazo[1,2-a]pyridin-6-ylcarbamoyl)phenyl]amide] | 4.7 nM
CCc1nc2ccc(NC(=O)c3ccc(OCc4ccc(F)cn4)c(F)c3)cn2c1C [Example 11, N-(2-ethyl-3-methylimidazo[1,2-a]pyridin-6-yl)-3-fluoro-4-[(5-fluoropyridin-2-yl)methoxy]benzamide] | 2.2 nM
CCc1nc2ccc(NC(=O)c3ccc(OCc4ccccn4)c(F)c3)cn2c1C [Example 9, N-(2-ethyl-3-methylimidazo[1,2-a]pyridin-6-yl)-3-fluoro-4-(pyridin-2-ylmethoxy)benzamide] | 3.4 nM
CCc1nc2ccc(NC(=O)c3ccc(C(F)Cc4ccccn4)cc3)cn2c1C (stereo not drawn) [Example 58, N-(2-ethyl-3-methylimidazo[1,2-a]pyridin-6-yl)-4-(1-fluoro-2-pyridin-2-ylethyl)benzamide] | 3.8 nM
Cc1c(C2CCOC2)nc2ccc(NC(=O)c3ccc(/C(F)=C/c4ccccn4)cc3)cn12 (stereo not drawn) [Example 42] | 4.8 nM
